Drawing on PubChem BioAssay (NCI), this text covers GI50 and TGI for eight compounds.

Some test systems named below: SNB-19 CNS; HOP-92 NSCLC; HT29 colon; HCT-15 colon; MDA-MB-231 breast; BT-549 breast; NCI-H522 lung; 786-0 renal; SK-MEL-28 melanoma; UACC-257 melanoma.
Experiment in all cases: DTP human tumour cell line panel, 48 h

“And” between values parts separate entries of the source, which are not always exact repeats. Identical values can stand only once.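 Test compounds were applied to cells in 96-well plates for 48 hours at 5 doses. GI50 is the concentration that inhibits growth by half. At the TGI there is no net growth.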

Usually GI50 stands for the concentration giving 50% growth inhibition. By TGI is commonly meant the concentration giving total growth inhibition. Lower therefore signals greater sensitivity of the cells. `COc1cc(C[C@H]2c3cc(OC)c(OC)cc3CCN2C)c(Oc2cc3c(cc2OC)-c2c(OC)c(OC)cc4c2[C@H](C3)N(C)CC4)cc1OC`: the GI50 was 20.3 µM with SNB-19 CNS; 13.3 µM with HOP-92 NSCLC; 4.05 µM in the assay on HT29 colon; 10.8 µM with HCT-15 colon; 5.13 µM in the assay with NCI-H522 lung; 8.97 µM in the assay with 786-0 renal. Moreover, the GI50 is 2.94 µM in the assay on SK-MEL-28 melanoma and 1.8 µM in the assay on UACC-257 melanoma. Moreover, the total growth inhibition concentration (TGI) in the assay with SNB-19 CNS is 41.8 µM and 54 µM; with HOP-92 NSCLC, 8.94 µM and 28.8 µM; in the assay on HT29 colon, 17.4 µM and 14.6 µM; with HCT-15 colon, 26.4 µM and 23.4 µM; in the assay with MDA-MB-231 breast it was 14.9 µM; in the assay with BT-549 breast it was 13.1 µM. In addition, the concentration for total growth inhibition (TGI) in the assay on NCI-H522 lung was 16.2 µM and 17 µM; in the assay with 786-0 renal, 14.1 µM and 21.9 µM; in the assay on SK-MEL-28 melanoma it was 9.03 µM and 8.73 µM; in the assay with UACC-257 melanoma, 8.76 µM and 3.37 µM.
On to `COC(=O)c1nc(-c2ccccc2)oc1S(=O)(=O)Cc1ccccc1`, for which the GI50 in the assay with SNB-19 CNS is 16.3 µM; in the assay with HOP-92 NSCLC, 1.61 µM; in the assay on HT29 colon, 2.44 µM; with HCT-15 colon, 1.79 µM; in the assay on MDA-MB-231 breast it was 2.18 µM; with BT-549 breast, 6.5 µM. Further, the GI50 was 1.52 µM in the assay with NCI-H522 lung, 3.25 µM in the assay with 786-0 renal, 7.15 µM with SK-MEL-28 melanoma and 13.7 µM in the assay on UACC-257 melanoma. The TGI with SNB-19 CNS was 31.3 µM; in the assay on HOP-92 NSCLC, 3.12 µM; with HT29 colon it was 5.79 µM; with HCT-15 colon, 3.58 µM; in the assay with MDA-MB-231 breast, 5.24 µM; in the assay with BT-549 breast it was 19.1 µM. Moreover, the concentration for total growth inhibition (TGI) was found to be 3.29 µM with NCI-H522 lung, 11 µM with 786-0 renal, 20.4 µM in the assay on SK-MEL-28 melanoma and 27.2 µM in the assay on UACC-257 melanoma.
Take `C(#Cc1ccccc1C#Cc1cccs1)c1cccs1`: the GI50 with SNB-19 CNS was greater than 100 µM; with HT29 colon, 23.5 µM; in the assay with HCT-15 colon it was 24.6 µM; in the assay on MDA-MB-231 breast, 23.4 µM; in the assay on BT-549 breast, greater than 100 µM; in the assay with NCI-H522 lung, 34.2 µM. Further, the GI50 is 24.7 µM with 786-0 renal, greater than 100 µM with SK-MEL-28 melanoma and greater than 100 µM in the assay on UACC-257 melanoma. Besides, the concentration for total growth inhibition (TGI) in the assay on SNB-19 CNS is greater than 100 µM; in the assay with HT29 colon it was greater than 100 µM; with HCT-15 colon it was greater than 100 µM; in the assay on MDA-MB-231 breast, 82.1 µM; in the assay on BT-549 breast, greater than 100 µM; with NCI-H522 lung, greater than 100 µM. The TGI in the assay with 786-0 renal, in the assay with SK-MEL-28 melanoma and in the assay on UACC-257 melanoma was greater than 100 µM in each case.
With `Nc1c(C(=O)c2cccc(-c3ccncc3)c2)cnn1-c1ccc(F)cc1F`, the GI50 was greater than 19.3 µM in the assay on SNB-19 CNS; 4.71 µM in the assay on HOP-92 NSCLC; 2.48 µM in the assay on HT29 colon; 2.19 µM in the assay on HCT-15 colon; 15.2 µM in the assay with MDA-MB-231 breast; 11.1 µM with BT-549 breast. Further, the GI50 with NCI-H522 lung is 5.73 µM; in the assay on 786-0 renal it was greater than 25 µM; in the assay with SK-MEL-28 melanoma, 16.7 µM; in the assay with UACC-257 melanoma it was 9.47 µM. The TGI in the assay on SNB-19 CNS was greater than 25 µM; in the assay with HOP-92 NSCLC, greater than 22.9 µM; with HT29 colon it was greater than 25 µM; in the assay with HCT-15 colon, greater than 25 µM; in the assay with MDA-MB-231 breast, greater than 25 µM; in the assay with BT-549 breast, greater than 25 µM. Further, the concentration for total growth inhibition (TGI) in the assay with NCI-H522 lung was greater than 18.7 µM; in the assay with 786-0 renal it was greater than 25 µM; with SK-MEL-28 melanoma, greater than 25 µM; in the assay with UACC-257 melanoma, greater than 25 µM.
In the case of `COc1ccc(-c2cc(=O)[nH]c3c(OC)c4ccccc4c(OC)c23)cc1`, the GI50 in the assay with SNB-19 CNS is 2.06 µM; with HOP-92 NSCLC, 0.409 µM; with HT29 colon, 0.342 µM; in the assay on HCT-15 colon, 0.419 µM; in the assay on MDA-MB-231 breast, 1.44 µM; in the assay on BT-549 breast it was 2.33 µM. Further, the GI50 was 0.284 µM with NCI-H522 lung, 0.532 µM in the assay on 786-0 renal and 3.45 µM with SK-MEL-28 melanoma. For the same compound, the TGI was greater than 100 µM in the assay with SNB-19 CNS; greater than 100 µM with HOP-92 NSCLC; greater than 100 µM in the assay with HCT-15 colon; greater than 100 µM in the assay with MDA-MB-231 breast; greater than 100 µM in the assay with BT-549 breast; 3.26 µM with NCI-H522 lung. The TGI in the assay on 786-0 renal, in the assay with SK-MEL-28 melanoma and with UACC-257 melanoma was greater than 100 µM each time.
For `CN(C)CCN1C(=O)c2ccccc2N(C)c2ccccc21`, the GI50 with SNB-19 CNS, with HOP-92 NSCLC, with HT29 colon, in the assay on HCT-15 colon, in the assay with MDA-MB-231 breast and in the assay with BT-549 breast was greater than 100 µM in each case. The GI50 with NCI-H522 lung, with 786-0 renal, in the assay on SK-MEL-28 melanoma and in the assay on UACC-257 melanoma was greater than 100 µM throughout. The total growth inhibition concentration (TGI) in the assay with SNB-19 CNS, with HOP-92 NSCLC, in the assay with HT29 colon, in the assay on HCT-15 colon, with MDA-MB-231 breast and in the assay with BT-549 breast was greater than 100 µM throughout. Also, the TGI with NCI-H522 lung, with 786-0 renal, in the assay on SK-MEL-28 melanoma and in the assay on UACC-257 melanoma was greater than 100 µM each time.
As for `Cc1cc2c(cc1C)N(C(=O)CCl)CC(=O)N2`, the GI50 in the assay with SNB-19 CNS was 12.6 µM; in the assay with HOP-92 NSCLC it was 1.59 µM; in the assay on HT29 colon, 2.01 µM; with HCT-15 colon, 1.74 µM; with MDA-MB-231 breast, 4.19 µM; with BT-549 breast, 2.64 µM. The GI50 in the assay on NCI-H522 lung was 0.568 µM; in the assay on 786-0 renal, 3.9 µM; in the assay on SK-MEL-28 melanoma it was 3.89 µM; in the assay on UACC-257 melanoma, 4.83 µM. Moreover, the TGI came out at 26.2 µM with SNB-19 CNS; 3.93 µM in the assay with HOP-92 NSCLC; 3.73 µM in the assay on HT29 colon; 3.42 µM with HCT-15 colon; 15.9 µM with MDA-MB-231 breast; 11.3 µM in the assay with BT-549 breast. Also, the concentration for total growth inhibition (TGI) in the assay on NCI-H522 lung is 1.97 µM; in the assay on 786-0 renal, 15.5 µM; in the assay with SK-MEL-28 melanoma, 14.8 µM; with UACC-257 melanoma, 18.5 µM.
For `O=C1c2ccccc2C(O)(O)C1(O)C1(O)C(=O)c2ccccc2C1(O)O` (stereo not drawn), the TGI is greater than 100 µM in the assay with SNB-19 CNS; greater than 100 µM with HOP-92 NSCLC; greater than 100 µM with HT29 colon; 44.1 µM in the assay with HCT-15 colon; greater than 100 µM with MDA-MB-231 breast; greater than 100 µM in the assay on BT-549 breast. The concentration for total growth inhibition (TGI) is 44.5 µM in the assay on NCI-H522 lung, greater than 100 µM in the assay on 786-0 renal and greater than 100 µM in the assay with SK-MEL-28 melanoma.
